Results as given in ChEMBL document CHEMBL3797072, “Discovery of Potent, Selective, and Orally Bioavailable Small-Molecule Modulators of the Mediator Complex-Associated Kinases CDK8 and CDK19” (J Med Chem, 2016).
≈ marks a conversion by molar mass, not a printed value.

Experiments:
physchem [1] = assay: physchem
in vivo [2] = settings: Wistar, rat
in vivo [3] = settings: Beagle, dog
in vivo [4] = settings: NMRI, mouse
in vivo [5] = settings: mouse, faeces
in vivo [6] = settings: mouse, plasma
in vivo [7] = settings: mouse, plasma; remark: listed apart in the source
in vivo [8] = settings: mouse, faeces; remark: listed apart in the source
in vitro [9] = settings: rat, microsomes
in vitro [10] = settings: human, microsomes
in vitro [11] = settings: mouse, microsomes
physchem [12] = assay: physchem; remark: listed apart in the source

Row | SMILES | solubility thermodynamic (physchem [1]) [µg/mL] | dose excreted (in vivo [5]) [%] | clearance (in vivo [6]) [mL/min/kg] | clearance (in vivo [7]) [mL/min/kg] | dose excreted (in vivo [8]) [%] | further results
1 | Cn1cc(-c2ccc(-c3cnc(N)c(Cl)c3N3CCC4(CCNC4=O)CC3)cc2)cn1 | 2 (≈ 4.58 µM) |  |  |  |  | 
2 | Cn1ncc2cc(-c3cnc(N)c(Cl)c3N3CCC4(CCNC4=O)CC3)ccc21 | 40 (≈ 97.3 µM) |  |  |  |  | half-life (in vivo [2]): 66 min; half-life (in vivo [3]): 59.4 min; half-life (in vivo [4]): 46.8 min
3 | Cn1cc(-c2ccc(-c3cncc(Cl)c3N3CCC4(CC3)NCNC4=O)cc2)cn1 | 47 (≈ 111 µM) |  |  |  |  | 
4 | Cn1cc(-c2ccc(-c3cncc(Cl)c3N3CCC4(CCNC4=O)CC3)cc2)cn1 | 6 (≈ 14.2 µM) | 9.1 | 38.3 | 39 | < 1 | microsomal CLint (in vitro [9]): 54 µL/min/mg; half-life (in vivo [3]): 42 min; half-life (in vivo [4]): 33 min; microsomal CLint (in vitro [10]): 84 µL/min/mg; microsomal CLint (in vitro [11]): 141 µL/min/mg
5 | CC(C)(O)Cn1cc(-c2ccc(-c3cnc(N)c(Cl)c3N3CCC4(CCNC4=O)CC3)cc2)cn1 | < 1 |  |  |  |  | 
6 | CC(C)n1ncc2cc(-c3cnc(N)c(Cl)c3N3CCC4(CCNC4=O)CC3)ccc21 |  |  |  |  |  | microsomal CLint (in vitro [9]): 139 µL/min/mg; solubility kinetic (physchem [12]): 126 µM (≈ 55.3 µg/mL); microsomal CLint (in vitro [10]): 202 µL/min/mg; microsomal CLint (in vitro [11]): 202 µL/min/mg

The next lines start with results.

Row | solubility thermodynamic (physchem [1]) [µg/mL] | dose excreted (in vivo [5]) [%] | clearance (in vivo [6]) [mL/min/kg] | clearance (in vivo [7]) [mL/min/kg] | dose excreted (in vivo [8]) [%] | SMILES | further results
7 |  | 20 | 47.5 | 68 | < 1 | CN1c2ccc(-c3cnc(N)c(Cl)c3N3CCC4(CC3)CNC(=O)O4)cc2CS1(=O)=O | 
8 | 17 (≈ 37.9 µM) | 18 | 66.7 | 81.5 | < 1 | CN1c2ccc(-c3cncc(Cl)c3N3CCC4(CC3)CNC(=O)O4)cc2CS1(=O)=O | 
9 |  | 17 | 47.3 | 43.2 | < 1 | Cn1cc(-c2ccc(-c3cnc(N)c(Cl)c3N3CCC4(CC3)CNC(=O)O4)cc2)cn1 | 
10 | 29 (≈ 65.1 µM) |  |  |  |  | CN1c2ccc(-c3cnc(N)c(F)c3N3CCC4(CCNC4=O)CC3)cc2CS1(=O)=O | 
11 | 3 (≈ 7.08 µM) |  |  |  |  | Cn1cc(-c2ccc(-c3cncc(Cl)c3N3CCC4(CC3)CNC(=O)O4)cc2)cn1 | 
12 | 248 (≈ 505 µM) |  |  |  |  | COCCN1CCCC12CCN(c1c(Cl)cncc1-c1ccc3c(c1)CS(=O)(=O)N3C)CC2 | 
13 | 1 (≈ 2.12 µM) |  |  |  |  | Cn1cc(-c2ccc(-c3cnc(N)c(C(F)(F)F)c3N3CCC4(CC3)CNC(=O)O4)cc2)cn1 | 
14 |  | 67 | 37 | 73.8 | 24 | Cn1cc(-c2ccc(-c3cncc(Cl)c3N3CCC4(CC3)NC(=O)CNC4=O)cc2)cn1 | 
15 | 3 (≈ 7.27 µM) |  |  |  |  | Cn1ncc2cc(-c3cnc(N)c(Cl)c3N3CCC4(CC3)CNC(=O)O4)ccc21 | 
